Literature values in US9840652B2, “Water-based drilling fluid with cyclodextrin shale stabilizer” (Halliburton Energy Services, Inc., priority 2012, dated 2017).

How the values were obtained:
[1] = test system: Cyprinus carpio (common carp)
[2] = test system: Daphnia magna
[3] = test system: desmodesmus subspicatus

OC[C@H]1O[C@@H]2O[C@H]3[C@H](O)[C@@H](O)[C@@H](O[C@H]4[C@H](O)[C@@H](O)[C@@H](O[C@H]5[C@H](O)[C@@H](O)[C@@H](O[C@H]6[C@H](O)[C@@H](O)[C@@H](O[C@H]7[C@H](O)[C@@H](O)[C@@H](O[C@H]8[C@H](O)[C@@H](O)[C@@H](O[C@H]1[C@H](O)[C@H]2O)O[C@@H]8CO)O[C@@H]7CO)O[C@@H]6CO)O[C@@H]5CO)O[C@@H]4CO)O[C@@H]3CO [β-cyclodextrin]
96-hr LC50 [1]: 7561 µg/mL | 48-hr EC50 [2]: > 100 µg/mL | 72-hr density EC50 [3]: > 100 µg/mL
